Results from ChEMBL document CHEMBL1781986, “Structure-activity relationships of pyrrole based S-nitrosoglutathione reductase inhibitors: pyrrole regioisomers and propionic acid replacement” (Bioorg Med Chem Lett, 2011).
The source made the active and inactive calls. The calls are words filed in the database; no cut-off is given here.

What was measured:
[1] = organism: Homo sapiens; test: Inhibition of human recombinant BZD receptor at 10 uM by radioligand binding assay
[2] = target: 5-hydroxytryptamine receptor 7 (Homo sapiens) (UniProt P34969); test: Inhibition of human recombinant 5HT7 receptor at 10 uM by radioligand binding assay
Chain of 5-hydroxytryptamine receptor 7 (Homo sapiens) (P34969 whole entry): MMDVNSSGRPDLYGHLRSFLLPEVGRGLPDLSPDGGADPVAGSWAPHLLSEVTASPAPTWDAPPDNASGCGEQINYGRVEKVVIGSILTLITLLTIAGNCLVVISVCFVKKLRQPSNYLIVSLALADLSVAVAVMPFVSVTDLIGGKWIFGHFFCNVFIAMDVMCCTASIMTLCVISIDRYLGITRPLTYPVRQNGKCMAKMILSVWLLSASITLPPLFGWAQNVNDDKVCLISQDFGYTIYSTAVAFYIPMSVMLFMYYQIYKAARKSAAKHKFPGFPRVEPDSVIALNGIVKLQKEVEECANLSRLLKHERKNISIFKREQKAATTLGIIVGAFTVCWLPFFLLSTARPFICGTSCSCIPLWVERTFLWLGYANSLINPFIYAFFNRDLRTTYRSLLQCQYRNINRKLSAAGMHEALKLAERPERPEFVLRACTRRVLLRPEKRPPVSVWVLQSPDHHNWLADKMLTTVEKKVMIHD

[3] = target: D(1A) dopamine receptor (Homo sapiens) (UniProt P21728); test: Inhibition of human recombinant D1 receptor at 10 uM by radioligand binding assay
Chain of D(1A) dopamine receptor (Homo sapiens) (P21728 whole entry): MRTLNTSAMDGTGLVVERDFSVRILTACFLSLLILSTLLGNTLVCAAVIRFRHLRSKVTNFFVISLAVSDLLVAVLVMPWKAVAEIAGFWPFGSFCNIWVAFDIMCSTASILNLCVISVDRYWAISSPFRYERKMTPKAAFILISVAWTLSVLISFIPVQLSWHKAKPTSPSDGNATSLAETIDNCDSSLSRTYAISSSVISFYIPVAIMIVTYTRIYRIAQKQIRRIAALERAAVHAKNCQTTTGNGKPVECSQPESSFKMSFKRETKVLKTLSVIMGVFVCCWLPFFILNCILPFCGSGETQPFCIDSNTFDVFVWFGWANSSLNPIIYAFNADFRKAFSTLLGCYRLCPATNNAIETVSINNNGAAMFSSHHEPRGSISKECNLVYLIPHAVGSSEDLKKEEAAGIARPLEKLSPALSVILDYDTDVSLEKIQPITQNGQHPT

[4] = system: Neuropeptide Y receptor type 1; test: Inhibition of human recombinant Y1 receptor at 10 uM by radioligand binding assay
[5] = target: Adenosine receptor A2a (Homo sapiens) (UniProt P29274); test: Inhibition of human recombinant A2a receptor at 10 uM by radioligand binding assay
Chain of Adenosine receptor A2a (Homo sapiens) (P29274 whole entry): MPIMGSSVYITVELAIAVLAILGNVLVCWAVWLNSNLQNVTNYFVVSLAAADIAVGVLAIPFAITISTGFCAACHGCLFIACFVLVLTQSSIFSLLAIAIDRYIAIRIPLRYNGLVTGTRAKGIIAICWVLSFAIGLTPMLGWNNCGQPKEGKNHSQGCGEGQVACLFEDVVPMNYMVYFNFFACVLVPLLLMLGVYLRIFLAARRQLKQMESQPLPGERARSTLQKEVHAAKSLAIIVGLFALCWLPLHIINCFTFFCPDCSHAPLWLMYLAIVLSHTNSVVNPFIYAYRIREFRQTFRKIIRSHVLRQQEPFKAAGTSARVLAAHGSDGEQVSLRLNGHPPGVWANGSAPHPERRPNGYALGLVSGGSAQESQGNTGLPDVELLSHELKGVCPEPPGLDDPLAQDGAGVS

[6] = target: T1, Adenosine receptor A3 (Homo sapiens) (UniProt P0DMS8); test: Inhibition of human recombinant A3 receptor at 10 uM by radioligand binding assay
T1 sequence (whole entry): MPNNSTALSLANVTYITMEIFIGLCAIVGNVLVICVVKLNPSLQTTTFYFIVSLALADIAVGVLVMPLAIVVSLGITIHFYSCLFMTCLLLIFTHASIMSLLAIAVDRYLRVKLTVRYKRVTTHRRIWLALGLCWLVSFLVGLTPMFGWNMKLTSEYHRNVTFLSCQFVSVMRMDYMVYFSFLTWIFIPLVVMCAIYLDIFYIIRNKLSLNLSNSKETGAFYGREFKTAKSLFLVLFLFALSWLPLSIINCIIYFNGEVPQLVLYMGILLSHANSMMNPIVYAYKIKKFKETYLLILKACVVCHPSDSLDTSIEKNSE

[7] = target: T2, Endothelin-1 receptor (Homo sapiens) (UniProt P25101); test: Inhibition of human recombinant ETA receptor at 10 uM by radioligand binding assay
T2 sequence (whole entry): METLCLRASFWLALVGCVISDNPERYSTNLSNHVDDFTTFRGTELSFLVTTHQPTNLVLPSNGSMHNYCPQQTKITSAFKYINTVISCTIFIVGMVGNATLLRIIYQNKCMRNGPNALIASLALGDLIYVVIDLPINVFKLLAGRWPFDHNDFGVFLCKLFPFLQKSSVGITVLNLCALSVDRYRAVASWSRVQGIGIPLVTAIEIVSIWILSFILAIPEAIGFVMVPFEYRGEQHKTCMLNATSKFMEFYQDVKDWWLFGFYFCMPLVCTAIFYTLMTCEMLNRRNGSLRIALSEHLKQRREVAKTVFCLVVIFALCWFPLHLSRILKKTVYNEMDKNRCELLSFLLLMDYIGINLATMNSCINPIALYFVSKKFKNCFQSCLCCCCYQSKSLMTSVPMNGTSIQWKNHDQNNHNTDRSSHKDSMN

[8] = target: 5-hydroxytryptamine receptor 1B (Homo sapiens) (UniProt P28222); test: Inhibition of human recombinant 5HT1B receptor at 10 uM by radioligand binding assay
Chain of 5-hydroxytryptamine receptor 1B (Homo sapiens) (P28222 whole entry): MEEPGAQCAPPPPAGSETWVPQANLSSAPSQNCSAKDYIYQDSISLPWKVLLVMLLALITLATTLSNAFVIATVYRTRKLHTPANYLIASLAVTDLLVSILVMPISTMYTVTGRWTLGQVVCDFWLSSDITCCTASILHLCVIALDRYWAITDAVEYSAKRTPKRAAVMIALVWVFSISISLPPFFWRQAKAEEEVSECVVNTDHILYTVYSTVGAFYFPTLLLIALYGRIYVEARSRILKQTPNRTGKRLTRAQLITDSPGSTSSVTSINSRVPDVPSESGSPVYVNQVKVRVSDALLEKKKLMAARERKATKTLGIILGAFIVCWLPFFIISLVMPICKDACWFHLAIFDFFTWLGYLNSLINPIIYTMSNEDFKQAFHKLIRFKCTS

[9] = system: Voltage-gated potassium channel; test: Inhibition of human recombinant Kv channel at 10 uM by radioligand binding assay; format: protein assay
[10] = organism: Homo sapiens; test: Inhibition of human recombinant Dop delta2 receptor at 10 uM by radioligand binding assay
[11] = Inhibition of GSNOR expressed in Escherichia coli using GSNO by plate method
[12] = target: Melanocortin receptor 4 (Homo sapiens) (UniProt P32245); test: Inhibition of human recombinant MC4 receptor at 10 uM by radioligand binding assay
Chain of Melanocortin receptor 4 (Homo sapiens) (P32245 whole entry): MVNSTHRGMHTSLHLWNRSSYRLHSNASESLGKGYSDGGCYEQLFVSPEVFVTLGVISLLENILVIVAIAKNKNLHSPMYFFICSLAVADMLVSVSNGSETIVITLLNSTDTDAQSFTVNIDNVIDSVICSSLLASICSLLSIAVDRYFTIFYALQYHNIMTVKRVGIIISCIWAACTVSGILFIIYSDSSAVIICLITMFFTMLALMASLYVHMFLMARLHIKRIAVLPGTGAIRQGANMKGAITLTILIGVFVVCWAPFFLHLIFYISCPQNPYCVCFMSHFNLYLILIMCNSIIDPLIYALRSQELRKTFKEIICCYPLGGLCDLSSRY

[13] = target: T3, Cholecystokinin receptor type A (Homo sapiens) (UniProt P32238); test: Inhibition of human recombinant CCK1 receptor at 10 uM by radioligand binding assay
T3 sequence (whole entry): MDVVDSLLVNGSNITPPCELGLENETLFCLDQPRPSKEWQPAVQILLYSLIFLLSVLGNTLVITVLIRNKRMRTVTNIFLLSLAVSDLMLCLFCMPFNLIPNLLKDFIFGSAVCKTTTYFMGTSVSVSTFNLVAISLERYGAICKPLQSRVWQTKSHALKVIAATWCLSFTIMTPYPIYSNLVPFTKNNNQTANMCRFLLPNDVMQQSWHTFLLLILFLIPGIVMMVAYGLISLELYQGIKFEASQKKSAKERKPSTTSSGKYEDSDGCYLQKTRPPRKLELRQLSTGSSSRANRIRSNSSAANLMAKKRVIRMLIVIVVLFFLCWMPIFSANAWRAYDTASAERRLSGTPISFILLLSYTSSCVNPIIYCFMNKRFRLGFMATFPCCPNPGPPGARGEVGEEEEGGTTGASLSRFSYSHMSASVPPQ

[14] = target: Sodium-dependent dopamine transporter (Homo sapiens) (UniProt Q01959); test: Inhibition of human recombinant DAT at 10 uM by radioligand binding assay
Chain of Sodium-dependent dopamine transporter (Homo sapiens) (Q01959 whole entry): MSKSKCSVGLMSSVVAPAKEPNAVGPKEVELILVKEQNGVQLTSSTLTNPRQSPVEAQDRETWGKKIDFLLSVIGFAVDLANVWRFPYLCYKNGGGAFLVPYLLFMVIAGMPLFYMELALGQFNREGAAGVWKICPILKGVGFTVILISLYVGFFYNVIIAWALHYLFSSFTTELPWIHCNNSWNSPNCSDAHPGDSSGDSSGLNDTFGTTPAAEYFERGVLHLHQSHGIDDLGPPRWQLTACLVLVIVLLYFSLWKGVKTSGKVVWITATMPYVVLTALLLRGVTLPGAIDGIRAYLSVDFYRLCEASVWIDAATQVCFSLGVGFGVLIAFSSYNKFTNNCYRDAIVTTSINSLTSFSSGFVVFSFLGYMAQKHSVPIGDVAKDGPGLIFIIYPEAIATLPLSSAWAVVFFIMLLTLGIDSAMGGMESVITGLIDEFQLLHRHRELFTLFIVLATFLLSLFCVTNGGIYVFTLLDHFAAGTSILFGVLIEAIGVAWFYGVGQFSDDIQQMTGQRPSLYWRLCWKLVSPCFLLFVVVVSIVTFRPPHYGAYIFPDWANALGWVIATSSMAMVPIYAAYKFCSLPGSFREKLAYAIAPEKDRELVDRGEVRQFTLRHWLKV

[15] = target: T4, Adenosine receptor A1 (Homo sapiens) (UniProt P30542); test: Inhibition of human recombinant A1 receptor at 10 uM by radioligand binding assay
T4 sequence (whole entry): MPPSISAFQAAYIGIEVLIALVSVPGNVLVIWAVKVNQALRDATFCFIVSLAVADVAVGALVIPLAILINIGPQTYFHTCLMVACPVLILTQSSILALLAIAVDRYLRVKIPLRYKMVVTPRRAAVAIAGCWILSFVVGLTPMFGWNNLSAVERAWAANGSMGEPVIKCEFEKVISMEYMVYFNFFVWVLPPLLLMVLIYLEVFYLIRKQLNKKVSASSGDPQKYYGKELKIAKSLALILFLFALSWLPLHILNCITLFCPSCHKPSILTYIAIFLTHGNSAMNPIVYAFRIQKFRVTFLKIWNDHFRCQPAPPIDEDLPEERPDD

[16] = target: Sodium-dependent noradrenaline transporter (Homo sapiens) (UniProt P23975); test: Inhibition of human recombinant NET at 10 uM by radioligand binding assay
Chain of Sodium-dependent noradrenaline transporter (Homo sapiens) (P23975 whole entry): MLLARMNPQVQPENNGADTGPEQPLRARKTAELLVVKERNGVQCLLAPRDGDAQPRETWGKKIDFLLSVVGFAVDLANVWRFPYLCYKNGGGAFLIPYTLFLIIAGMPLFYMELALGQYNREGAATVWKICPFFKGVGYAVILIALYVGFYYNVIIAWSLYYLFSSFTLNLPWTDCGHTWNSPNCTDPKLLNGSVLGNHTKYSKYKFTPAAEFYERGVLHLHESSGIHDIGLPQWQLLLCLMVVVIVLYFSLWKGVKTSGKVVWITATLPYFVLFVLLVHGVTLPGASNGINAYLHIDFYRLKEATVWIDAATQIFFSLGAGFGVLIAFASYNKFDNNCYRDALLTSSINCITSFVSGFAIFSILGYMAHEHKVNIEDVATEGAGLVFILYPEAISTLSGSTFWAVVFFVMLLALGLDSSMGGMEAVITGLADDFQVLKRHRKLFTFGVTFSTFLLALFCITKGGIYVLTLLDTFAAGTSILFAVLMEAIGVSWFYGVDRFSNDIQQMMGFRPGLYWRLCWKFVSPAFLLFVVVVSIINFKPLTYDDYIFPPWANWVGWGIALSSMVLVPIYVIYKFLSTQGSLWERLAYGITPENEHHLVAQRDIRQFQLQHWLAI

[17] = target: T5, Vasoactive intestinal polypeptide receptor 1 (Homo sapiens) (UniProt P32241); test: Inhibition of human recombinant VPAC1 receptor at 10 uM by radioligand binding assay
T5 sequence (whole entry): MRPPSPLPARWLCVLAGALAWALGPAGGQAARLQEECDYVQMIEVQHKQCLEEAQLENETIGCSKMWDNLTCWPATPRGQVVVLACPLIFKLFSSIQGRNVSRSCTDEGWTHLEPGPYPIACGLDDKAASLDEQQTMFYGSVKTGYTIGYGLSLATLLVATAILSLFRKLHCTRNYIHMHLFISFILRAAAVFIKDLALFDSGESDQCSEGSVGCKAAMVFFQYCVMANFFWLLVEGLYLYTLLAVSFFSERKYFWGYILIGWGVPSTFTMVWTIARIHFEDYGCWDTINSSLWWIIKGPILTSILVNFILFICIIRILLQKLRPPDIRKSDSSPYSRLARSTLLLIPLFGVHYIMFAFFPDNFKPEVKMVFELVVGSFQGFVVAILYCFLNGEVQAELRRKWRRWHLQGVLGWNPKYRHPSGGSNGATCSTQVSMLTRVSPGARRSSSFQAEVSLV

[18] = target: Beta-1 adrenergic receptor (Homo sapiens) (UniProt P08588); test: Inhibition of human recombinant beta1 receptor at 10 uM by radioligand binding assay
Chain of Beta-1 adrenergic receptor (Homo sapiens) (P08588 whole entry, looked up): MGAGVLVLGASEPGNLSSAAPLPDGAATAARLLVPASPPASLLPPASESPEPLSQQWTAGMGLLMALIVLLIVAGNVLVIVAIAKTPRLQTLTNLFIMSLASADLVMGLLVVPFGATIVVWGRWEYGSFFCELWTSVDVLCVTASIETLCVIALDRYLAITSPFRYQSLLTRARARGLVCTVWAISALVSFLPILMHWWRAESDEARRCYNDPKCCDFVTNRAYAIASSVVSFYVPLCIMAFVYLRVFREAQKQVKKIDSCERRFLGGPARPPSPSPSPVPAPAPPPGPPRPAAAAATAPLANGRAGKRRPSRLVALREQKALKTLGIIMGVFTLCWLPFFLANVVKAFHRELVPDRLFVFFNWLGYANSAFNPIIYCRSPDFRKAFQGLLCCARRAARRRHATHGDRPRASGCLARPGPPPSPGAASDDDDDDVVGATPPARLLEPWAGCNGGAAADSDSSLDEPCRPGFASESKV

[19] = Inhibition of GSNOR expressed in Escherichia coli using GSNO by cuvette method

Structure (SMILES) | inhibition [1] | inhibition [2] | inhibition [3] | inhibition [4] | inhibition [5] | inhibition [6] | inhibition [7] | inhibition [8] | inhibition (INH) [9] | inhibition [10] | IC50 [11] [nM] | inhibition [12] | inhibition [13] | inhibition [14] | inhibition [15] | inhibition [16] | inhibition [17] | inhibition [18] | IC50 [19] [nM]
COc1ccc(-c2ccn(-c3ccc(O)c([N+](=O)[O-])c3)c2-c2ccc(C(N)=O)cc2C)cc1 | Active | Active | Active | Active | Active | Active | Active | Active | Active | Active | – | Active | Active | Active | Active | Active | Active | Active | 190
Cc1cc(C(N)=O)ccc1-n1c(CCC(=O)O)ccc1-c1ccc(-n2ccnc2)cc1 [N6022] | inactive | inactive | inactive | – | inactive | inactive | inactive | inactive | Not Active | Active | 10 | inactive | inactive | inactive | inactive | inactive | inactive | inactive | 20
COc1ccc(-c2ccn(-c3ccc(C(=O)O)c(O)c3)c2-c2ccc(C(N)=O)cc2C)cc1 | Active | Active | Active | Active | Active | Active | Active | Active | Active | Active | – | Active | Active | Active | Active | Active | Active | Active | 280

Further lines, results first:

inhibition [1] | inhibition [2] | inhibition [3] | inhibition [4] | inhibition [5] | inhibition [6] | inhibition [7] | inhibition [8] | inhibition (INH) [9] | inhibition [10] | IC50 [11] [nM] | inhibition [12] | inhibition [13] | inhibition [14] | inhibition [15] | inhibition [16] | inhibition [17] | inhibition [18] | IC50 [19] [nM] | Structure (SMILES)
inactive | inactive | inactive | inactive | inactive | inactive | inactive | inactive | Not Active | Active | 9.9 | inactive | inactive | inactive | inactive | inactive | inactive | inactive | – | Cc1cc(C(N)=O)ccc1-c1c(CCC(=O)O)ccn1-c1ccc(-n2ccnc2)cc1
inactive | inactive | inactive | inactive | inactive | inactive | inactive | inactive | Not Active | Active | 35 | inactive | inactive | inactive | inactive | inactive | inactive | inactive | – | Cc1cc(C(N)=O)ccc1-c1c(-c2ccc(-n3ccnc3)cc2)ccn1CCC(=O)O
